Results from patent US20220089602A1, “COMPOUNDS THAT INDUCE FERROPTIC CELL DEATH” (The Board of Trustees of the University of Illinois, priority 2019, published 2022).
Entries after “also recorded” stand apart in the source; their conditions may differ.

Columns and labels:
4T1 cells = assay: Cellular lipid ROS production (C11-BODIPY); format: cell-based, murine; settings: 10 μM
Description: ES-2, HCT 116, and 4T1 cells (1×10^5 cells/mL) were plated in 12-well plates. Cells were pre-treated for 2 hr with 100 μM deferoxamine followed by treatment with DMSO, 10 μM ferroptocide, 10 μM RSL3, or 100 μM TBHP for 1 hr, 1.5 hr and 2 hr respectively. Cells were washed with HBSS and incubated in the dark for 20 min with 5 μM C11-BODIPY probe. Cells were then washed 2× with HBSS and harvested at 1000×g, 3 min. After resuspension in 500 μl HBSS buffer, samples were analyzed with flow cytometry to record ten thousand events per sample in FL1 channel in BD LSR II Flow Cytometer (BD Bioscience). FCS express V6 De Novo software was used to generate histograms.

[1] = Pharmacokinetic assessment; format: in vivo, C57BL/6 mice
Description: The protocol was approved by the IACUC at the University of Illinois at Urbana-Champaign (Protocol Number: 14173). In these studies, 10- to 12-week-old female C57BL/6 mice (purchased from Charles River) were used. Ferroptocide was formulated in 100% PEG400. Mice were treated with ferroptocide (40 mg/kg) via i.p. with three mice per time point (15, 30, 45, 60, 120, 240, 480, and 1440 min). At specific time points, mice were sacrificed, and blood was collected, centrifuged; the serum was frozen at −80° C. until analysis. The proteins in a 50 μL aliquot of serum were precipitated by the addition of 50 μL acetonitrile and the sample was centrifuged to remove the proteins. Serum concentrations of ferroptocide were determined by reverse phase HPLC (Shimadzu Corporation, Japan). PK parameters were determined using GraphPad Prism Version 5.00 for Windows.

[2] = biological target: T1, purified human thioredoxin (Homo sapiens, UniProt P10599); assay: Thioredoxin activity assay, biochemical (in vitro); settings: 30 min, versus PMX464 and PX-12
T1 construct: purchased Cayman Chemical Fluorescent Thioredoxin Activity Assay kit #20039
Description: HCT 116 cells (1×10^6 cells/flask) were treated with DMSO, 10 μM ferroptocide, 50 μM PMX464, or 50 μM PX-12 for 30 min. Cells were harvested by centrifugation, resuspended in the assay buffer and lysed via sonication. For each condition, 20 μg of cell lysate was used to measure the activity thioredoxin activity following manufacturer' protocol (Cayman Chemical, Fluorescent Thioredoxin Activity Assay kit #20039) in a 96-well black-walled plate. For in vitro studies, human thioredoxin (10 μL of 0.2 μM solution) was used in addition to thioredoxin reductase (10 μL of 1.0 μM solution), 1 μl of DMSO, ferroptocide, […], or PX-12 at indicated concentrations, 5 μL of NADPH (diluted according to manufacturer's instructions), and assay buffer to a final volume of 75 μL. The plate was incubated at 37° C. for 30 min followed by immediate addition of 20 μL fluorescent substrate per each well (diluted as instructed in the assay kit). Fluorescence was monitored over 1 hr at 520 nm after excitation at 480 nm in a SpectraMax M3 (Molecular Devices) instrument at 37° C.

GPX4 = biological target: T2, GPX4 (Homo sapiens, UniProt P36969); assay: GPX4 LC-MS based activity assay (PCOOH); format: cell-based; settings: 10 μM, 1 hr, ES-2 cells
T2 construct: endogenous in cells; host or cells: ES-2 cells
Description: 1 million ES-2 cells/well, 6 well plate were allowed to attach overnight and then treated with DMSO, 10 μM of each compound: ferroptocide, raptinal, and RSL3 for 1 hr. GPX4 enzymatic activity assay was performed with a GPX4 specific substrate, phosphatidylcholine hydroperoxide (PC—OOH) as described previously with minor modifications (Cell 156, 317-331, (2014)). PCOOH was prepared as reported by Roveri and coworkers (Enzymol. Vol. 233 202-212 (Academic Press, 1994)) but using soybean lipoxidase type I-B (L7395, Milipore Sigma). Cells were washed with PBS and lysed by liquid nitrogen freeze-thaw method in the assay buffer (137 mM NaCl, 2.7 mM KCl, 8 mM Na2HPO4, 2 mM KH2PO4, 1 mM EDTA, 0.1 mM DFO; pH 7.4). Cell lysates were cleared by centrifugation at 14,000 rpm for 10 min at 4° C. Bradford assay was used to determine protein concentration; 200 μg of protein or assay buffer (PCOOH control sample) was mixed with 10 μL PC—OOH in methanol, 5 mM reduced glutathione, and assay buffer to a final reaction volume of 500 μL. The reaction mixture was incubated at 37° C. for 15 mins and extracted with 250 μL chloroform:methanol (2:1) solution. The lipid extract was evaporated under nitrogen and re-dissolved in 100% methanol before injecting into the LC-MS/MS instrument for PCOOH detection.

S. aureus = assay: Antibacterial activity (MIC); format: cell-based; settings: Staphylococcus aureus; gram positive (S. aureus)
[3] = test system: 4T1 triple negative breast cancer cells; assay: 4T1 subcutaneous tumor model, immunocompromised mice; format: in vivo; settings: 50 mg/kg i.p., twice a week, five doses, SCID; listed as ferroptocide
Description: The protocol was approved by the IACUC at the University of Illinois at Urbana-Champaign (Protocol Number: 17192). 9-week old female Balb/C or SCID mice (Charles River) were lightly sedated with i.p. xylazine/ketamine/saline solution. Following sedation, 4T1 murine breast cancer cells suspended in chilled HBSS (100 μL of 4×10^6 cells/mL) were injected subcutaneously into the right flank of shaved and sedated mice using an insulin syringe. On day 8 after inoculation, mice were randomized with 7 mice per group for vehicle or ferroptocide treatment. Vehicle (PEG400) or ferroptocide (50 mg/kg) was administered intraperitoneally as a PEG400 solution twice a week for 5 times. Tumor measurements were performed every 3 or 4 days using a caliper and tumor volume was calculated using the equation (0.5×l×w^2). On day 23 after the 4T1 cells inoculation, mice were sacrificed. Tumors were then surgically removed, and their mass was measured.

[4] = female, mouse, ip, 40 mg/kg i.p., C57BL/6 mice, serum

T2 sequence (P36969 whole entry): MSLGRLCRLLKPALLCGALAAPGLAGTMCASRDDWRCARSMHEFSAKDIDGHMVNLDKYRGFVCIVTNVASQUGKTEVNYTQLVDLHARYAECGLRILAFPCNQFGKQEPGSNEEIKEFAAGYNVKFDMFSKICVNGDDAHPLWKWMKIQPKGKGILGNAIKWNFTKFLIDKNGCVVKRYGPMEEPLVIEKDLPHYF
T1 sequence (P10599 whole entry): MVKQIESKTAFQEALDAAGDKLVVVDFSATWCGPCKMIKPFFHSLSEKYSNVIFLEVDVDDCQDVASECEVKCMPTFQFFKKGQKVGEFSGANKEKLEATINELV

SMILES: C[C@@H]1CC[C@@]23C[C@H](O)C(=O)[C@@]2(O)[C@]1(C)[C@H](OC(=O)CCl)C[C@@H](C1=CCn2c(=O)n(-c4ccccc4)c(=O)n2C1)[C@@H]3C [Compound P18, ferroptocide]
- lipid ROS (4T1 cells): induces lipid ROS
- AUC [1, 4]: 7040 ng·h/mL
- half-life [1, 4]: 9.96 min
- pharmacokinetics (in words) ([1]; mice): poor pharmacokinetics
- inhibition of purified thioredoxin, dose-response [2]: more potent thioredoxin inhibitor than PMX464 and PX-12
- GPX4 inhibition (GPX4): did not result in GPX4 inhibition; also recorded: does not cause direct GPX4 inhibition
- MIC (S. aureus): > 64 µg/mL
- effect on subcutaneous 4T1 tumor growth (in words) [3]: no effect
